Legend:
male mice = settings: data of LD50 from the literature; cited from earlier work
[1] = tested on: spontaneously hypertensive male rats, strain MHS; experiment: Anti-hypertensive activity in spontaneously hypertensive rats (MHS), blood pressure and heart rate measured at the tail; type: in vivo, rat (spontaneously hypertensive; settings: MHS rats; for Change in BP, 1st day, 1 hr after dose / Change in HR, 1st day, 1 hr after dose / Change in BP, 1st day, 5 hrs after dose / Change in HR, 1st day, 5 hrs after dose / Change in BP, 4th day, 1 hr after dose / Change in HR, 4th day, 1 hr after dose / Change in BP, 4th day, 5 hrs after dose / Change in HR, 4th day, 5 hrs after dose: mean of 4 animals
Experimental: Four spontaneously hypertensive male rats, strains MHS, weighing 250-300 g for each group were used.
The animals were treated for four consecutive days. Drugs were administered by gastric gavage, suspended in 5% arabic gum (0.2 ml/100 g body weight). Blood pressure (BP) and heart rate (HR) were measured at the tail by BP Recorder W+W. Blood pressure and heart rate were measured on the 1st and 4th day of treatment 1 hour before and 1 and 5 hours after drug administration.
*Data of LD50 from the literature. In Tables 1 and 2 are reported
the results of the study of the activity of compounds 355/1165 and
355/1166 upon the BP and HR (measured indirectly by means of a tail cuff)
of spontaneous hypertensive rats, MHS strain (4 rats each group). The
compounds were given orally, once a day for 4 consecutive days.

In the case of C[C@](N)(Cc1ccc(O)c(O)c1)C(=O)O [α-Methyl-DOPA, reference compound], the “LD50 (orientative toxicity in mice)” value (male mice) is listed as 5300 mg/kg per os, the “Change in BP, 1st day, 1 hr after dose” value ([1]; 30 mg/kg os) is listed as -27 mmHg and the “Change in HR, 1st day, 1 hr after dose” value ([1]; 30 mg/kg os) is listed as “+33 b/min”. For the same compound, the “Change in BP, 1st day, 5 hrs after dose” value ([1]; 30 mg/kg os) was -4 mmHg, the “Change in HR, 1st day, 5 hrs after dose” value ([1]; 30 mg/kg os) was “+36 b/min” and the “Change in BP, 4th day, 1 hr after dose” value ([1]; 30 mg/kg os) was -2 mmHg. The “Change in HR, 4th day, 1 hr after dose” value ([1]; 30 mg/kg os) was “+50 b/min”, the “Change in BP, 4th day, 5 hrs after dose” value ([1]; 30 mg/kg os) was 0 mmHg and the “Change in HR, 4th day, 5 hrs after dose” value ([1]; 30 mg/kg os) was “+20 b/min”. For the same compound, the “Change in BP, 1st day, 1 hr after dose” value ([1]; 100 mg/kg os) was -6 mmHg, the “Change in HR, 1st day, 1 hr after dose” value ([1]; 100 mg/kg os) was “+73 b/min” and the “Change in BP, 1st day, 5 hrs after dose” value ([1]; 100 mg/kg os) was -22 mmHg. The “Change in HR, 1st day, 5 hrs after dose” value ([1]; 100 mg/kg os) was “+40 b/min”, the “Change in BP, 4th day, 1 hr after dose” value ([1]; 100 mg/kg os) was -19 mmHg and the “Change in HR, 4th day, 1 hr after dose” value ([1]; 100 mg/kg os) was “+70 b/min”. The “Change in BP, 4th day, 5 hrs after dose” value ([1]; 100 mg/kg os) was -31 mmHg, the “Change in HR, 4th day, 5 hrs after dose” value ([1]; 100 mg/kg os) was “+20 b/min” and the “Effect on heart rate” value ([1]; oral, all doses treated (Table 2)) was “no effect on heart rate”.
